Source: patent publication US7759345B2, “Antitumoral derivatives of ET-743” (priority 2001, dated 2010)

How the values were obtained:
A-549 = test: Inhibition of cells growth by colorimetric assay (SRB), A-549; assay type: cell-based; conditions: A-549, SRB, 48 hours exposure
How it was run: (§1)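 Human cancer cells (5×10^3/well) attached 18 h in RPMI 1640 10% FBS, then exposed 48 h at 37°C to compounds from 10 to 10^−8 μg/ml in DMSO/EtOH/PBS. TCA-fixed, SRB-stained, OD read at 490 nm; GI, TGI and LC derived from triplicate wells.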

LNCaP = test: Inhibition of cells growth by colorimetric assay (SRB), LNCaP; assay type: cell-based; conditions: LNCAP, SRB, 48 hours exposure
Experimental: (§2) 2°.—Inhibition of Cells Growth by Colorimetric Assay.
(§3) A colorimetric type of assay, using sulforhodamine B (SRB) reaction has been adapted for a quantitative measurement of cell growth and viability [following the technique described by Philip Skehan, et al. (1990), New colorimetric cytotoxicity assay for anticancer drug screening, J. Natl. Cancer Inst., 82:1107-1112]
(§4) This form of the assay employs 96 well cell culture microplates of 9 mm diameter (Faircloth, 1988; Mosmann, 1983). Most of the cell lines are obtained from American Type Culture Collection (ATCC) derived from different human cancer types.
(§5) Cells are maintained in RPMI 1640 10% FBS, supplemented with 0.1 g/l penicillin and 0.1 g/l streptomycin sulfate and then incubated at 37° C., 5% CO2 and 98% humidity. For the experiments, cells were harvested from subconfluent cultures using trypsin and resuspended in fresh medium before plating.
(§6) Cells are seeded in 96 well microtiter plates, at 5×10^3 cells per well in aliquots of 195 μl medium, and they are allowed to attach to the plate surface by growing in drug free medium for 18 hours. Afterward, samples are added in aliquots of 5 μl in a ranging from 10 to 10^−8 μg/ml, dissolved in DMSO/EtOH/PBS (0.5:0.5:99). After 48 hours exposure, the antitumor effect are measured by the SRB methodology: cells are fixed by adding 50 μl of cold 50% (wt/vol) trichloroacetic acid (TCA) and incubating for 60 minutes at 4° C. Plates are washed with deionized water and dried. One hundred μl of SRB solution (0.4% wt/vol in 1% acetic acid) is added to each microtiter well and incubated for 10 minutes at room temperature. Unbound SRB is removed by washing with 1% acetic acid. Plates are air dried and bound stain is solubilized with Tris buffer. Optical densities are read on a automated spectrophotometric plate reader at a single wavelength of 490 nm.
(§7) The values for mean+/−SD of data from triplicate wells are calculated. Some parameters for cellular responses can be calculated: GI=growth inhibition, TGI=total growth inhibition (cytostatic effect) and LC=cell killing (cytotoxic effect).
(§8) Obtained results may predict the usefulness of a certain drug as a potential cancer treatment. For this technique, compounds which show GI50 values smaller than 10 μg/ml are selected to continue with further studies. GI50's data allow to predict that not only could a drug be cystostatic, but also it could have a potential in terms of tumor reduction.

SK-MEL-28 = test: Inhibition of cells growth by colorimetric assay (SRB), SK-MEL-28; assay type: cell-based; conditions: MEL-28, SRB, 48 hours exposure
How it was run: as §1

LoVo-Dox = test: Inhibition of cells growth by colorimetric assay (SRB), LoVo-Dox; assay type: cell-based; conditions: LOVO-DOX, SRB, 48 hours exposure
Experimental: as §2, §3, §4, §5, §6, §7, §8

HMEC1 = test: Inhibition of cells growth by colorimetric assay (SRB), HMEC1; assay type: cell-based; conditions: HMEC-1, SRB, 48 hours exposure
Experimental: as §2, §3, §4, §5, §6, §7, §8

IGROV-1 = test: Inhibition of cells growth by colorimetric assay (SRB), IGROV-1; assay type: cell-based; conditions: IGROV, SRB, 48 hours exposure
Experimental: as §2, §3, §4, §5, §6, §7, §8

SK-BR-3 = test: Inhibition of cells growth by colorimetric assay (SRB), SK-BR-3; assay type: cell-based; conditions: SK-BR3, SRB, 48 hours exposure
Experimental: as §2, §3, §4, §5, §6, §7, §8

DU-145 = test: Inhibition of cells growth by colorimetric assay (SRB), DU-145; assay type: cell-based; conditions: DU-145, SRB, 48 hours exposure
Experimental: as §2, §3, §4, §5, §6, §7, §8

K-562 = test: Inhibition of cells growth by colorimetric assay (SRB), K-562; assay type: cell-based; conditions: K-562, SRB, 48 hours exposure
Experimental: as §2, §3, §4, §5, §6, §7, §8

LoVo = test: Inhibition of cells growth by colorimetric assay (SRB), LoVo; assay type: cell-based; conditions: LOVO, SRB, 48 hours exposure
Experimental: as §2, §3, §4, §5, §6, §7, §8

PANC-1 = test: Inhibition of cells growth by colorimetric assay (SRB), PANC-1; assay type: cell-based; conditions: PANC-1, SRB, 48 hours exposure
Experimental: as §2, §3, §4, §5, §6, §7, §8

SK-OV-3 = test: Inhibition of cells growth by colorimetric assay (SRB), SK-OV-3; assay type: cell-based; conditions: SK-OV3, SRB, 48 hours exposure
Experimental: as §2, §3, §4, §5, §6, §7, §8

IGROV-ET = test: Inhibition of cells growth by colorimetric assay (SRB), IGROV-ET; assay type: cell-based; conditions: IGROV-ET, SRB, 48 hours exposure
Experimental: as §2, §3, §4, §5, §6, §7, §8

HT-29 = test: Inhibition of cells growth by colorimetric assay (SRB), HT-29; assay type: cell-based; conditions: HT-29, SRB, 48 hours exposure
How it was run: as §1

Text for Heart: (§9) Toxicity was asssessed by the methods reported in Toxicology in Vitro, 15 (2001) 571-577, J. Luber Narod et al.: “Evaluation of the use of in vitro methodolodies as tools for screening new compounds for potential in vivo toxicity”.
Text for Kidney: as §9
Text for Liver: as §9
Text for Skeletal: as §9

## COc1cc2c(cc1OC(=O)Cc1cc(=O)oc3cc(N(C)C)ccc13)CCN[C@]21CS[C@@H]2c3c(OC(C)=O)c(C)c4c(c3[C@H](COC1=O)N1C2[C@H]2c3c(cc(C)c(OC)c3OC(=O)Cc3cc(=O)oc5cc(N(C)C)ccc35)C[C@@H]([C@@H]1O)N2C)OCO4 (stereo partly shown) [Compound 78]
A-549
  TGI A-549: 1.99E-08
A-549; read-out: GI50 A-549
  GI50: 9.59 nM
A-549; read-out: A-549 LC50
  LC50 (concentration for 50% cell killing): 41.1 nM
LNCaP
  LNCAP TGI: 4.05E-09
LNCaP; read-out: LNCAP GI50
  GI50: 2.74 nM
LNCaP; read-out: LNCAP LC50
  CC50: 5.99 nM
SK-MEL-28
  MEL-28 TGI: 4.48E-09
SK-MEL-28; read-out: MEL-28 GI50
  GI50: 2.15 nM
SK-MEL-28; read-out: MEL-28 LC50
  CC50: 16.9 nM
LoVo-Dox
  LOVO-DOX TGI: 8.77E-07
LoVo-Dox; read-out: LOVO-DOX GI50
  GI50: 88.5 nM
Skeletal
  Toxicity Data Skeletal: 1.96E-08
HMEC1
  HMEC-1 TGI: 2.35E-07
HMEC1; read-out: HMEC-1 GI50
  GI50: 28.3 nM
IGROV-1
  IGROV TGI: 6.27E-09
IGROV-1; read-out: IGROV GI50
  GI50: 2.38 nM
IGROV-1; read-out: IGROV LC50
  CC50: 53.9 nM
SK-BR-3
  SK-BR3 TGI: 1.70E-08
SK-BR-3; read-out: SK-BR3 GI50
  GI50: 4.31 nM
SK-BR-3; read-out: SK-BR3 LC50
  CC50: 63.3 nM
DU-145
  DU-145 TGI: 8.52E-09
DU-145; read-out: DU-145 GI50
  GI50: 3.21 nM
K-562
  K-562 TGI: 2.56E-09
K-562; read-out: K-562 GI50
  GI50: 1.24 nM
K-562; read-out: K-562 LC50
  LC50 (50% cell killing): 7.5 nM
LoVo
  LOVO TGI: 2.83E-08
LoVo; read-out: LOVO GI50
  GI50: 10.7 nM
LoVo; read-out: LOVO LC50
  LC50 (concentration for 50% cell killing): 74.3 nM
PANC-1
  PANC-1 TGI: 3.24E-08
PANC-1; read-out: PANC-1 GI50
  GI50: 5.42 nM
PANC-1; read-out: PANC-1 LC50
  LC50 (concentration for 50% net cell kill): 4900 nM
SK-OV-3
  SK-OV3 TGI: 6.27E-08
SK-OV-3; read-out: SK-OV3 GI50
  GI50: 3.79 nM
Heart
  Toxicity Data Heart: 8.19E-07
IGROV-ET
  IGROV-ET TGI: 7.42E-07
IGROV-ET; read-out: IGROV-ET GI50
  GI50: 114 nM
HT-29
  HT-29 TGI: 1.10E-07
HT-29; read-out: HT-29 GI50
  GI50: 17.1 nM
Kidney
  Toxicity Data Kidney: 2.59E-07
Liver
  Toxicity Data Liver: 5.88E-08
